Measurements: paper PMC11480954, “Molecular determinants of resurgent sodium currents mediated by Navβ4 peptide and A-type FHFs” (Frontiers in Molecular Neuroscience, 2024)

Assays:
[1] = target: T1, human Nav1.7 R1599P (rpNav1.7) (Homo sapiens, UniProt Q15858, R1610P); test: Inhibition of Navβ4 peptide-mediated rpNav1.7 INaR; format: cell-based; details: 100 μM Navβ4 peptide + 1 mM FHF4A peptide, HEK293; n = 5
T1 construct: expressed in transfected cells; host or cells: HEK293 cells, transient transfection with pcDNA3.1 construct

human Nav1.8 [2] = test: INaR, Nav1.8 co-expressed with FHF2B; format: cell-based
Method: (§1) HEK293 cells and ND7/23 cells were grown under standard tissue culture conditions (5% CO2 and 37°C) in DMEM supplemented with 10% FBS, 1% penicillin and 1% streptomycin. Using Invitrogen Lipofectamine 2000, human Nav1.7 R1599P (rpNav1.7) and the mutant constructs were transiently co-transfected with Navβ1 and Navβ2 into HEK293 cells. The constructs human Nav1.8 and mutants were transiently co-transfected with FHF2B or FHF4A into ND7/23 cells. The lipofectamine-DNA mixture was added to the cell culture medium and left for 3 h after which the cells were washed with fresh medium. Cells with green fluorescent protein fluorescence were selected for whole-cell patch-clamp recordings 36–72 h after transfection.
(§2) Whole-cell voltage-clamp recordings were performed at room temperature (~21°C) using an EPC-10 amplifier and the Pulse program (HEKA Electronics). Fire-polished electrodes (0.7–1.0 MΩ) were fabricated from 1.7 mm capillary glass using a P-97 puller (Sutter Instruments), and the tips were coated with sticky wax (KerrLab) to reduce electrode capacitance and enable increased series resistance compensation. The pipette solution contained (in mM) 140 CsF, 1.1 EGTA, 10 NaCl, and 10 HEPES, pH 7.3. The bathing solution was (in mM) 130 mM NaCl, 30 mM TEA chloride, 1 mM MgCl2, 3 mM KCl, 1 mM CaCl2, 10 mM HEPES, and 10 mM d-glucose, pH 7.3 (adjusted with NaOH). […] The offset potential was zeroed before contacting the cell. After establishing the whole-cell recording configuration, the resting potential was held at −120 or −100 mV for 5 min to allow adequate equilibration between the micropipette solution and the cell interior. Linear leak subtraction, based on resistance estimates from four to five hyperpolarizing pulses applied before the depolarizing test potential, was used for all voltage clamp recordings. Membrane currents were usually filtered at 5 kHz and sampled at 20 kHz. […] Voltage errors were minimized using 80–95% series resistance compensation, and the capacitance artifact was canceled using the computer-controlled circuitry of the patch clamp amplifier. […] The concentration-dependent curves were fitted to a hill equation: Y = Bottom + (Top-Bottom)/(1 + 10^((LogEC50-X)*HillSlope)).
(§3) INaR: INaR was elicited by repolarizing voltage steps from +20 to −80 mV for 100 ms (or 200 ms) in −5 mV increments, following a 20-ms depolarizing potential of +30 mV. […] The relative INaR in Nav1.7 and Nav1.8 was calculated by normalizing to the peak transient current elicited at −10 or 0 mV.

Nav1.8 Y387K [3] = test: INaR, Nav1.8 mutant Y387K; format: cell-based, human; details: 1 mM FHF4A peptide, + FHF2B, ND7/23; n = 8; p > 0.05 vs Nav1.8
Method: as §1
(§4) Whole-cell voltage-clamp recordings were performed at room temperature (~21°C) using an EPC-10 amplifier and the Pulse program (HEKA Electronics). […]
as §3

Nav1.8 N390K = test: INaR, Nav1.8 mutant N390K; format: cell-based, human; details: 1 mM FHF4A peptide
Method: as §1, §4, §3

Nav1.8 F1710K [4] = test: INaR, Nav1.8 mutant F1710K; format: cell-based, human; details: 1 mM FHF4A peptide
Method: as §1, §4, §3

Nav1.8 Y1717K [5] = test: INaR, Nav1.8 mutant Y1717K; format: cell-based, human; details: 1 mM FHF4A peptide, + FHF2B, ND7/23; n = 10; p > 0.05 vs Nav1.8
Method: as §1, §4, §3

Nav1.8 N891S [6] = test: INaR, Nav1.8 mutant N891S; format: cell-based, human; details: 1 mM FHF4A peptide, + FHF2B, ND7/23; −80 to +20 mV; n = 6
Method: as §1, §4, §3

human Nav1.8 [7] = test: Gating properties (steady-state activation, inactivation, INaP), Nav1.8; format: cell-based
Method: as §1, §2
(§5) Families of sodium currents were induced by 50-ms depolarizing steps to various potentials ranging from −120 (or −100) to +40 mV in 5-mV increments. The conductance was calculated using the equation G(Nav) = I/(V - Vrev) in which I, V, and Vrev represent inward current value, membrane potential, and reversal potential, respectively.
(§6) Voltage dependence of steady-state inactivation was estimated using a standard double pulse protocol in which sodium currents were induced by a 50-ms depolarizing potential of 0 mV following a 500-ms prepulse at potentials that ranged from −150 to +10 mV with a 10-mV increment. Currents were plotted as a fraction of the maximum peak current. To obtain the midpoint voltages (V1/2) and slope factor (k), the curves of both steady-state activation and inactivation were fitted to a Boltzmann function.

Nav1.8 Y387K [8] = test: Gating properties, Nav1.8 mutant Y387K; format: cell-based, human; details: 1 mM FHF4A peptide
Method: as §1, §2
(§7) Families of sodium currents were induced by 50-ms depolarizing steps to various potentials ranging from −120 (or −100) to +40 mV in 5-mV increments. The conductance was calculated using the equation G(Nav) = I/(V - Vrev) in which I, V, and Vrev represent inward current value, membrane potential, and reversal potential, respectively. […]

Nav1.8 F1710K [9] = test: Gating properties, Nav1.8 mutant F1710K; format: cell-based, human
Method: as §1, §2, §5, §6

Nav1.8 Y1717K [10] = test: Gating properties, Nav1.8 mutant Y1717K; format: cell-based, human
Method: as §1, §2, §5, §6

Nav1.8 N891S [11] = test: Gating properties, Nav1.8 mutant N891S; format: cell-based, human; details: 1 mM FHF4A peptide
Method: as §1, §2, §7

Nav1.8 = details: ref Xiao et al., 2022; cited from earlier work
Text: This mechanism requires that the peptides compete with the fast inactivation particle to block open VGSCs at strong positive potentials and unblocks upon repolarization so that the channels can reconduct ([Cannon and Bean, 2010]).

[12] = Nav1.8 + FHF2B, ND7/23, 1 mM FHF4A peptide
[13] = Nav1.8 + FHF2B, ND7/23, 1 mM, held at −100 mV, scramble n = 8, FHF4A peptide n = 10, p > 0.05

T1 sequence (Q15858 1-1977 isoform Q15858-3 R1599P): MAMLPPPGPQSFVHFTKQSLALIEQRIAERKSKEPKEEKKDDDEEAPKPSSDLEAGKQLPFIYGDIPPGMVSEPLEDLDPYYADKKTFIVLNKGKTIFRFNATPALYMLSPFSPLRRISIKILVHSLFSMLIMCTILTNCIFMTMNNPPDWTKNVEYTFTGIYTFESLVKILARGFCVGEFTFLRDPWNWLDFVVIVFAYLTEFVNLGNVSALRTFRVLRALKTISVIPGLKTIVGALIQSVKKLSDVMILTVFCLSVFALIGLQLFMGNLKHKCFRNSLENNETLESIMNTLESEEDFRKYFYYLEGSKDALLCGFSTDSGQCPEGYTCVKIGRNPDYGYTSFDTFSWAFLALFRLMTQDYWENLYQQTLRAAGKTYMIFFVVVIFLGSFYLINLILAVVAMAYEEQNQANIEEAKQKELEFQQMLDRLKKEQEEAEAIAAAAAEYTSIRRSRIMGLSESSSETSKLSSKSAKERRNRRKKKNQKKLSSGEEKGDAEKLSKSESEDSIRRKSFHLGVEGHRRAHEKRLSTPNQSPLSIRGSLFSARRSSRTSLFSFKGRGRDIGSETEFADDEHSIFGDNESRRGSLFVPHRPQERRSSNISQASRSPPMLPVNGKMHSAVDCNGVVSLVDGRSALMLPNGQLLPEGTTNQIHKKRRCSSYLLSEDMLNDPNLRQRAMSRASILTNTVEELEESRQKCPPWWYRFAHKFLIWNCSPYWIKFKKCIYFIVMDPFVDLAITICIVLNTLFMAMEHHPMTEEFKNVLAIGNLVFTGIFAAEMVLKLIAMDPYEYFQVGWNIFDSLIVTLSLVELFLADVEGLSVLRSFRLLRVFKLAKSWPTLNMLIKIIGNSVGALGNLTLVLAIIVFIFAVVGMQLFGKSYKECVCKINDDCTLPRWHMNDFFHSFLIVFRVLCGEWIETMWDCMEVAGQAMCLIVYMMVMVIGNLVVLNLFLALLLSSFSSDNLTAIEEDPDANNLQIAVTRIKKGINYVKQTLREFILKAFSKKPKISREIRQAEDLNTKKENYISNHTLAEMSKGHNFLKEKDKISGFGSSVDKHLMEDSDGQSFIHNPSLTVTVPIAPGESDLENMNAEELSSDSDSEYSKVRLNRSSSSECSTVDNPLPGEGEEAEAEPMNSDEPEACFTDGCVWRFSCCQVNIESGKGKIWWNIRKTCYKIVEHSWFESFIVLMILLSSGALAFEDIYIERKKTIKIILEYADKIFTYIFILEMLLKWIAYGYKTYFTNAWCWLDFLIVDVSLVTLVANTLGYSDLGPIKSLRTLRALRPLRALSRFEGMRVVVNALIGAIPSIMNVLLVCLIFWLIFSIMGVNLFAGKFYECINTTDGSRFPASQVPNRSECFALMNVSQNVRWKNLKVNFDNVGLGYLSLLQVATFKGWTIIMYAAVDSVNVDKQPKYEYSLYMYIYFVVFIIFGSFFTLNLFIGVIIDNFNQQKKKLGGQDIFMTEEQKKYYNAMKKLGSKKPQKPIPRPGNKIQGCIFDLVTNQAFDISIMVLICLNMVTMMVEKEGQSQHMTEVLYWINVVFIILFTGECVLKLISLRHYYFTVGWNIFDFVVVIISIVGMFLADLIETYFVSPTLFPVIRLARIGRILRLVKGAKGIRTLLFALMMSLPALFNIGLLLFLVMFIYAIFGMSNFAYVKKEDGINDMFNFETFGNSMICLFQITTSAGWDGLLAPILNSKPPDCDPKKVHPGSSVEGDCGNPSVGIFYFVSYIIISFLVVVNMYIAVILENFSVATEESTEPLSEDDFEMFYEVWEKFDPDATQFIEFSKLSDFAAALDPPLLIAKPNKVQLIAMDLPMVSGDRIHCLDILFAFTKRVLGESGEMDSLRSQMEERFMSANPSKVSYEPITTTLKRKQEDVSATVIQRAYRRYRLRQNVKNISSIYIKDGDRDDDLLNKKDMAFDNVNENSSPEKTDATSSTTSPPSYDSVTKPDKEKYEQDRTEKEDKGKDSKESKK
T1 sequence (Q07699 19-218 partner): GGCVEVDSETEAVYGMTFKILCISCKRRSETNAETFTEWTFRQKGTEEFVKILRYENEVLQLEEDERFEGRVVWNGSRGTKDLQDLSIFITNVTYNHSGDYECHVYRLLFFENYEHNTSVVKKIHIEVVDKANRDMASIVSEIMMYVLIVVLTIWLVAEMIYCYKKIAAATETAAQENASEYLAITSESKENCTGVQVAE
T1 sequence (O60939 30-215 partner): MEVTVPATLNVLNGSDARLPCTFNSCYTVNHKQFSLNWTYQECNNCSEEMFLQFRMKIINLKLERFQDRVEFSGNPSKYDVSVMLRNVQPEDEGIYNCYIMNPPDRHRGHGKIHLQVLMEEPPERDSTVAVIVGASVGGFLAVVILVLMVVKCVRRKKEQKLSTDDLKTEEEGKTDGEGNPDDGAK

AAAIASGLIRQKRQAREQHW [FHF4A peptide, synthetic 20-residue peptide from FHF4A A2 – W21]
inhibition of Navβ4 peptide-mediated rpNav1.7 INaR [1]: inhibited completely
average FHF4A peptide mediated INaR amplitude (peak, −15 mV), Nav1.8 (human Nav1.8 [2]; Nav1.8 + FHF2B, ND7/23, 500 nM TTX, 1 mM peptide intracellular, measured after 20 ms into repolarization, mean ± S.E., n = 9): 4.8% ± 0.5%
potential at which INaR peaked (human Nav1.8 [2]; [12]): −15 mV
range of voltages at which INaR observed (human Nav1.8 [2]; [12]): −40 to +20 mV
saturation of effect on INaR (human Nav1.8 [2]; concentration-dependent curve, 1 mM): did not saturate at 1 mM
average INaR amplitude at −15 mV, Y387K (Nav1.8 Y387K [3]): 5.3% ± 0.5%
voltage dependence of INaR, N390K (Nav1.8 N390K): slightly shifted the voltage dependence of Nav1.8 INaR to more positive potentials
average INaR amplitude at −15 mV, N390K (Nav1.8 N390K; + FHF2B, ND7/23, n = 7, p > 0.05 vs Nav1.8): 4.4% ± 0.7%
average INaR amplitude at −15 mV, F1710K (Nav1.8 F1710K [4]; + FHF2B, ND7/23, n = 6, p < 0.0001 vs Nav1.8): 0.5% ± 0.1%
decrease of INaR amplitude by F1710K (Nav1.8 F1710K [4]; −15 mV, vs Nav1.8): ninefold
average INaR amplitude at −15 mV, Y1717K (Nav1.8 Y1717K [5]): 4.6% ± 0.8%
INaR, N891S (Nav1.8 N891S [6]): no INaR was induced
effect on steady-state activation or inactivation (human Nav1.8 [7]; Nav1.8 + FHF2B, ND7/23, FHF4A peptide): did not alter steady-state activation or inactivation
V1/2 (activation), Nav1.8, Figure 6 (human Nav1.8 [7]; [13]): −12.5 ± 1.7 mV
V1/2 (inactivation), Nav1.8, Figure 6 (human Nav1.8 [7]; [13]): −42.4 ± 4.3 mV
INaP, Nav1.8 (human Nav1.8 [7]; end of 50-ms pulse of +10 mV, normalized to peak transient current, 1 mM FHF4A peptide, n = 9): 3.0 ± 1.8 (9) %
V1/2 of steady-state inactivation, Y387K vs Nav1.8 (Nav1.8 Y387K [8]): None of four lysine-mutations significantly changed the V1/2 value of steady-state inactivation
Activation (V1/2), Y387K (Nav1.8 Y387K [8]; + FHF2B, ND7/23, n = 10): −9.9 ± 2.1 (10) mV
Inactivation (V1/2), Y387K (Nav1.8 Y387K [8]; + FHF2B, ND7/23, n = 10): −30.7 ± 1.5 (10) mV
INaP, Y387K (Nav1.8 Y387K [8]; end of 50-ms pulse of +10 mV, normalized to peak transient current, n = 8): 3.6 ± 0.9 (8) %
V1/2 of steady-state inactivation, F1710K vs Nav1.8 (Nav1.8 F1710K [9]; 1 mM FHF4A peptide): None of four lysine-mutations significantly changed the V1/2 value of steady-state inactivation
Inactivation (V1/2), F1710K (Nav1.8 F1710K [9]; 1 mM FHF4A peptide, + FHF2B, ND7/23, n = 7): −41.1 ± 5.5 (7) mV
Activation (V1/2), F1710K (Nav1.8 F1710K [9]; 1 mM FHF4A peptide, + FHF2B, ND7/23, n = 7, ***p < 0.0001): 19.9 ± 2.0*** (7) mV
INaP, F1710K (Nav1.8 F1710K [9]; end of 50-ms pulse of +10 mV, normalized to peak transient current, 1 mM FHF4A peptide, n = 6, **p < 0.01): 0.8 ± 0.9^** (6) %
positive shift of voltage dependence of activation by F1710K (Nav1.8 F1710K [9]; vs Nav1.8, 1 mM FHF4A peptide): 31.0 mV
V1/2 of steady-state inactivation, Y1717K vs Nav1.8 (Nav1.8 Y1717K [10]; 1 mM FHF4A peptide): None of four lysine-mutations significantly changed the V1/2 value of steady-state inactivation
Inactivation (V1/2), Y1717K (Nav1.8 Y1717K [10]; 1 mM FHF4A peptide, + FHF2B, ND7/23, n = 10): −38.4 ± 1.0 (10) mV
Activation (V1/2), Y1717K (Nav1.8 Y1717K [10]; 1 mM FHF4A peptide, + FHF2B, ND7/23, n = 10, ***p < 0.0001): 7.3 ± 1.5*** (10) mV
INaP, Y1717K (Nav1.8 Y1717K [10]; end of 50-ms pulse of +10 mV, normalized to peak transient current, 1 mM FHF4A peptide, n = 10): 5.4 ± 3.8 (10) %
positive shift of voltage dependence of activation by Y1717K (Nav1.8 Y1717K [10]; vs Nav1.8, 1 mM FHF4A peptide): 18.4 mV
steady-state activation or inactivation, N891S vs Nav1.8 (Nav1.8 N891S [11]): no effect on steady-state activation or inactivation
Activation (V1/2), N891S (Nav1.8 N891S [11]; + FHF2B, ND7/23, n = 6): −8.6 ± 2.1 (6) mV
Inactivation (V1/2), N891S (Nav1.8 N891S [11]; + FHF2B, ND7/23, n = 6): −36.4 ± 0.7 (6) mV
INaP, N891S (Nav1.8 N891S [11]; end of 50-ms pulse of +10 mV, normalized to peak transient current, n = 6, ***p < 0.0001): 1.1 ± 0.5^*** (6) %
effect on fast inactivation after Nav1.8 opens (Nav1.8): accelerates fast inactivation after Nav1.8 opens
